Assay results reported in patent US6448374B1, “Production of phosphopeptides from casein” (The University of Melbourne, priority 1991, dated 2002).
Where no end group is shown, it is not given here. [ ]: non-standard residue; d: D form. pS = N[C@@H](COP(=O)(O)O)C(=O)O

Legend:
[1] = phosphopeptides released by tryptic digestion of casein; from Australian Patent No. 593365; cited from earlier work
[2] = calcium binding of the phosphopeptide; assay type: physicochemical; conditions: calcium phosphate ACPP
Text: (§1) The calcium ACPP can be converted to calcium phosphate ACPP by addition of CaCl2 and Na2HPO4 where the Ca/P final ratio is 1.67. The peptide αs1(59-79) can bind 21 Ca and 13 PO4. The filtrate of the above process is suited for the purification of other bioactive casein peptides by size and charge-based separation technologies and can be used as microbiological growth media, as dietary supplements after debittering or as a nitrogen fertilizer.

[3] = phosphate binding of the phosphopeptide; assay type: physicochemical; conditions: calcium phosphate ACPP
Text: as §1

Substance | anticariogenic (tooth-decay-inhibiting) activity [1] | Ca bound per peptide [2] [Ca] | PO4 bound per peptide [3] [PO4]
αs2(2-21): casein tryptic phosphopeptide containing -Ser(P)-Ser(P)-Ser(P)-Glu-Glu- (NTMEHV[pS][pS][pS]EESIISQETYK; ends and bridges not checked; also: other serines' phosphorylation not given here) | anticariogenic (tooth-decay-inhibiting) activity | – | –
β(2-25): casein tryptic phosphopeptide containing -Ser(P)-Ser(P)-Ser(P)-Glu-Glu- (ELEELNVPGEIVESL[pS][pS][pS]EESITR; ends and bridges not checked; also: other serines' phosphorylation not given here) | anticariogenic (tooth-decay-inhibiting) activity | – | –
αs1(59-79): casein tryptic phosphopeptide containing -Ser(P)-Ser(P)-Ser(P)-Glu-Glu- (QMEAESI[pS][pS][pS]EEIVPNSVEQK; ends and bridges not checked; also: other serines' phosphorylation not given here) | anticariogenic (tooth-decay-inhibiting) activity | 21 | 13
αs2(46-70): casein tryptic phosphopeptide containing -Ser(P)-Ser(P)-Ser(P)-Glu-Glu- (NANEEEYSIG[pS][pS][pS]EESAEVATEEVK; ends and bridges not checked; also: other serines' phosphorylation not given here) | anticariogenic (tooth-decay-inhibiting) activity | – | –
